Data on four compounds can be found in patent publication US9474754B2, “Pharmaceutical combinations comprising a B-RAF inhibitor, and EGFR inhibitor and optionally a PI3K-α inhibitor” (NOVARTIS AG, priority 2012, dated 2016).

One series has as its system COLO 205. Put plainly: 72 hr cell titer Glo proliferation assay, COLO 205. The format is cell-based. As to conditions: Homo sapiens, single agent, COLO 205, BRAFV600E. As to the method:
(§1) All cell lines express the BRAFV600E protein, except MDST8 which expresses the BRAFV600K variant. Cells harboring known or putative activating mutations in the PI3Kα gene are marked with a (*) and cells with PTEN loss marked with a (#). Cell proliferation was measured in 72 hr cell titer Glo™ assays and all results shown are the result of at least triplicate measurements. […] Interactions were deemed synergistic when scores ≧2.0 where observed.

The test system of the next series is LS411N. Nature of the series: 72 hr cell titer Glo proliferation assay, LS411N. The format is cell-based. As to conditions: Homo sapiens, LS-411N, single agent, BRAFV600E. As to the method:
as §1
A general note: In ATP-based viability assays light output follows the ATP content of the culture.

The next series relates to CL-34. Put plainly: 72 hr cell titer Glo proliferation assay, CL-34. Format: cell-based. The note with it: single agent, CL-34, BRAFV600E. As to the method: as §1
The next series concerns MDST8. Nature of the series: 72 hr cell titer Glo proliferation assay, MDST8. Format: cell-based. The note with it: single agent, MDST8, BRAFV600K. As to the method:
as §1

The next series concerns HT-29. Nature of the series: 72 hr cell titer Glo proliferation assay, HT-29. The format is cell-based. As to conditions: Homo sapiens, single agent, HT-29 (PI3Kα mutation), BRAFV600E. As to the method: as §1
The test system of a further series is SNU-C5. Put plainly: 72 hr cell titer Glo proliferation assay, SNU-C5. The format is cell-based. As to conditions: single agent, SNU-C5 (PI3Kα mutation), BRAFV600E. The protocol: as §1
The subject of the next series is OUMS-23. Put plainly: 72 hr cell titer Glo proliferation assay, OUMS-23. The format is cell-based. As to conditions: single agent, OUMS-23 (PTEN loss), BRAFV600E. As to the method:
as §1

Series [1] deals with BRAF-mutant CRC-derived cell lines. Put plainly: Proliferation of BRAF-mutant CRC-derived cell lines, panel summary. Format: cell-based. As to conditions: all cell lines tested. As to the method:
as §1

For series [2], the system named is HT-29 human colorectal adenocarcinoma xenograft. Format: in vivo. As to conditions: for T/C: D29, 100×ΔT/ΔC for ΔT>0; for T/C / Mean Volume Day 1 / Mean Volume Day 29 / Mean Volume Change (ΔT): Cpd A 20 mg/kg po bid x 28, Cpd B 25 mg/kg po qd x 28, cetuximab 20 mg/kg ip biwk x 4, paclitaxel 30 mg/kg iv qod x 5; for Mean Volume Day 1: Day 1, start of dosing; for Mean Volume Change (ΔT): between D1 and D29; for Mean BW Nadir, day of nadir / Deaths NTR / Deaths TR / Regressions CR / Regressions PR: doses as in table; for Deaths NTR / Deaths TR / Regressions CR / Regressions PR: n = 10 per group; for Statistical Significance vs G1: vs Group 1 (vehicles), tumor volume change D1-D29. The protocol:
A fresh suspension was prepared every two weeks and stored at room temperature.
A fresh suspension was prepared weekly and stored at 4° C.
Dosing solutions were freshly prepared for one group at a time.
Each agent was administered at a single dose level, individually and in dual and triple combinations, that were initiated on Day 1 (D1) in female nude mice with established subcutaneous tumors. […] Efficacy was determined from mean tumor volume changes between D1 and D29. Prism summarizes test results as not significant (ns) at P>0.05, significant (symbolized by “*”) at 0.01<P≦0.05, very significant (“**”) at 0.001<P≦0.01, and extremely significant (“***”) at P≦0.001.
For the purpose of statistical analyses, ΔTV, the difference in tumor volume between D1 (the start of dosing) and the endpoint day, was determined for every animal. […] The […] values are negative represent net tumor reduction for a group. […] Response to Combination Therapies (Groups 5-8)

Another series addresses T1, BCRP (Homo sapiens, UniProt Q9UNQ0).
T1 sequence (Q9UNQ0 1-655): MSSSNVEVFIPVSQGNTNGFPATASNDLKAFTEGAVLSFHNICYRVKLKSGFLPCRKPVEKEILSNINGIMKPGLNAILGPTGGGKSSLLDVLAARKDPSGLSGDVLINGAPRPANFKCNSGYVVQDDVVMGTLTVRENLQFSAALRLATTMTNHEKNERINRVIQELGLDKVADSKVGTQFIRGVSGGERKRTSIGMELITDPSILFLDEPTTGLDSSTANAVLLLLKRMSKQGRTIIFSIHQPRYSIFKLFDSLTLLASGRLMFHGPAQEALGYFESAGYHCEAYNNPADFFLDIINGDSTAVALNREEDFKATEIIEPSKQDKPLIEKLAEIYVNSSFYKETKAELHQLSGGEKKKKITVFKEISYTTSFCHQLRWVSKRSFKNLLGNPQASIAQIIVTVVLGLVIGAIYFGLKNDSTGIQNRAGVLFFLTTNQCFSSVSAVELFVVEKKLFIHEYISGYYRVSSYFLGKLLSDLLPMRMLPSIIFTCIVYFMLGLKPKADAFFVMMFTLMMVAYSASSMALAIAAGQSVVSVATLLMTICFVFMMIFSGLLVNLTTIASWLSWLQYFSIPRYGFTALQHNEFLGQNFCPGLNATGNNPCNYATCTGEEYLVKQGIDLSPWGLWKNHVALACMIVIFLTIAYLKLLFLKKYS
Nature of the series: BCRP interaction. Format: in vitro ADME.

The next series concerns the target CYP3A4 (Homo sapiens, UniProt P08684). Put plainly: CYP3A4 interaction. The format is in vitro ADME.
A further series relates to SW1417. Nature of the series: 72 hr cell titer Glo proliferation assay, SW1417. The format is cell-based. The note with it: Homo sapiens, single agent, SW1417, BRAFV600E. The protocol: as §1
A further series deals with RKO. Nature of the series: 72 hr cell titer Glo proliferation assay, RKO. Format: cell-based. As to conditions: Homo sapiens, single agent, RKO (PI3Kα mutation), BRAFV600E. The protocol: as §1
A further series in a line: Rat ADME bioavailability. As to conditions: pre-clinical. Format: in vivo.

CYP3A4, sequence (P08684 whole entry): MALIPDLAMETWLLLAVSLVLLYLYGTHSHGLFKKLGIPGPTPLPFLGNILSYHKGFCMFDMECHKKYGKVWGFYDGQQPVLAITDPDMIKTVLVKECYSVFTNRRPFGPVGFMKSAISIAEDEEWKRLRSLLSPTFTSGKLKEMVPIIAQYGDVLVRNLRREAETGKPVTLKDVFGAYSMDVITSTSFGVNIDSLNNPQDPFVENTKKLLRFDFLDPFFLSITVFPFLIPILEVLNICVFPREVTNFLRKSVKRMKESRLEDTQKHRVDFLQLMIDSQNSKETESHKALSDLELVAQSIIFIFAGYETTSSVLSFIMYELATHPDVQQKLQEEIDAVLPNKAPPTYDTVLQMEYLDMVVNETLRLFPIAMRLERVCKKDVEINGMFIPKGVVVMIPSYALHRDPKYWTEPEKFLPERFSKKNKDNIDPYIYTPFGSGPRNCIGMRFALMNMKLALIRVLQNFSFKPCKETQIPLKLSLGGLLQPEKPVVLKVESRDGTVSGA

A word on the IC50: it is the point on the concentration scale where inhibition reaches its midpoint. What is called T/C is the ratio of treated to control. For `COC(=O)N[C@@H](C)CNc1nccc(-c2cn(C(C)C)nc2-c2cc(Cl)cc(NS(C)(=O)=O)c2F)n1` [Compound A], the IC50 in the series with COLO 205 is 5 nM. The IC50 with LS411N was found to be 18 nM. Further, the IC50 with CL-34 was 30 nM. Further, the IC50 in the series on MDST8 turned out to be 319 nM. Also, in the series on HT-29, the half-inhibitory concentration (IC50) stood at 49 nM. Moreover, in the series on SNU-C5, the IC50 is more than 2700 nM. Further, the half-inhibitory concentration (IC50) in the series on OUMS-23 was more than 2700 nM. Further, the “single agent activity on proliferation” value in series [1] is “significant single agent activity”. In addition, in [2], the T/C is 95%, the “Mean Volume Day 1” value amounted to 122 mm^3, the “Mean Volume Day 29” value turned out to be 1016 mm^3 and the “Mean Volume Change (ΔT)” value is reported as 894 mm^3. In series [2], the “Mean BW Nadir, day of nadir” value is reported as “Day 8”; the “Deaths NTR” value was determined as 0; the “Deaths TR” value is 0; the “Regressions CR” value is given as 0. In series [2], the “Regressions PR” value stood at 0 and the “Statistical Significance vs G1” value is “ns (not significant (ns) at P>0.05)”. The BCRP inhibition result on BCRP is “inhibitor of BCRP”. On CYP3A4, the metabolism entry is on record as “mainly metabolized by CYP3A4”.
What is called bioavailability is the share of a dose that reaches the circulation, judged against a reference dose that is usually intravenous. Read a high bioavailability as much systemic uptake. As for `Cc1nc(NC(=O)N2CCC[C@H]2C(N)=O)sc1-c1ccnc(C(C)(C)C(F)(F)F)c1` [Compound B, (S)-Pyrrolidine-1,2-dicarboxylic acid 2-amide 1-({4-methyl-5-[2-(2,2,2-trifluoro-1,1-dimethyl-ethyl)-pyridin-4-yl]-thiazol-2-yl}-amide)], the IC50 in the series with SW1417 was more than 2700 nM. Further, the IC50 with COLO 205 is more than 2700 nM. Moreover, in the series with LS411N, the IC50 was more than 2700 nM. Besides, the half-maximal inhibitory concentration (IC50) in the series with CL-34 was more than 2700 nM. The 50% inhibitory concentration (IC50) with HT-29 is more than 2700 nM. The IC50 with RKO is more than 2700 nM. The half-inhibitory concentration (IC50) in the series on SNU-C5 was more than 2700 nM. In addition, the IC50 in the series on OUMS-23 is more than 2700 nM. Besides, in [2], the T/C turned out to be 57%, the “Mean Volume Day 1” value is reported as 122 mm^3, the “Mean Volume Day 29” value is reported as 660 mm^3 and the “Mean Volume Change (ΔT)” value was 538 mm^3. Further, in series [2], the “Mean BW Nadir, day of nadir” value is on record as “Day 8”; the “Deaths NTR” value is listed as 0; the “Deaths TR” value was determined as 0; the “Regressions CR” value was 0. Further, in series [2], the “Regressions PR” value was 0 and the “Statistical Significance vs G1” value is “ns (not significant (ns) at P>0.05)”. In addition, in “Rat ADME bioavailability”, the bioavailability amounted to 58%. In addition, the BCRP substrate entry on BCRP was “substrate of BCRP”. Also, the CYP3A4 inhibition entry at CYP3A4 is on record as “time dependent inhibitor of CYP3A4”.
For `C#Cc1cccc(Nc2ncnc3cc(OCCOC)c(OCCOC)cc23)c1` [Erlotinib, erlotinib, reference compound], the half-maximal inhibitory concentration (IC50) in the series on SW1417, in the series with COLO 205, with LS411N, in the series with CL-34, with MDST8 and in the series with HT-29 was more than 2700 nM each time. For the same compound, the 50% inhibitory concentration (IC50) in the series with RKO, in the series with SNU-C5 and with OUMS-23 was more than 2700 nM each time.
`CC(=O)O[C@H]1C(=O)[C@@]2(C)[C@H]([C@H](OC(=O)c3ccccc3)[C@]3(O)C[C@H](OC(=O)[C@H](O)[C@@H](NC(=O)c4ccccc4)c4ccccc4)C(C)=C1C3(C)C)[C@]1(OC(C)=O)CO[C@@H]1C[C@@H]2O` [Paclitaxel, paclitaxel, reference compound]: in series [2], the T/C came to 11%, the “Mean Volume Day 1” value came to 122 mm^3, the “Mean Volume Day 29” value came to 229 mm^3 and the “Mean Volume Change (ΔT)” value came out at 107 mm^3. In series [2], the “Mean BW Nadir, day of nadir” value is given as “Day 11”; the “Deaths NTR” value was found to be 0; the “Deaths TR” value is given as 0; the “Regressions CR” value came to 0. In addition, in series [2], the “Regressions PR” value was found to be 0 and the “Statistical Significance vs G1” value is recorded as “** (very significant (“**”) at 0.001<P≦0.01)”.
